In patent US20090233948A1, “Inhibitors of nucleoside phosphorylases and nucleosidases” (priority 2005, published 2009) one finds Ki data, which are given here for one compound.

The assay concerns the target T1, human PNP (Homo sapiens, UniProt P00491).
T1 sequence (P00491 1-289): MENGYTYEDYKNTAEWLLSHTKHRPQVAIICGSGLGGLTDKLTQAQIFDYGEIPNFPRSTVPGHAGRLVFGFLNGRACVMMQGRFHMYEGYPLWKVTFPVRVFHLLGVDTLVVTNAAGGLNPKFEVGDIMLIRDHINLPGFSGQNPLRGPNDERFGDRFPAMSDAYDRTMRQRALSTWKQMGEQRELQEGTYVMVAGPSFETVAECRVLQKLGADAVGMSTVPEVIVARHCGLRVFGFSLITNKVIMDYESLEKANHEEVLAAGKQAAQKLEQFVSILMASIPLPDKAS
Kind of assay: Inhibition of human PNP: phosphorolysis of inosine, xanthine oxidase coupled spectrophotometric assay (slow-onset tight-binding analysis). The class given is biochemical. The conditions noted are these: huPNP 1.4 nM, 1 mM inosine, 50 mM KHPO4 pH 7.4, 25° C. The protocol:
Initial (Ki) and equilibrium (Ki*) dissociation constants of DAD-Et-Immucillin-H were determined for human PNP.
Inhibitor dissociation constants for the phosphorolysis of inosine were based on initial and equilibrium reaction rate measurements with varied inhibitor concentrations (Miles, R. W., Tyler, P. C., Furneaux, R. H., Bagdassarian, C. K. and Schramm, V. L. (1998) One-third-the-sites transition state inhibitors for purine nucleoside phosphorylase, Biochemistry 37, 8615-8621; Morrison, J. F. and Walsh, C. T. (1988) The behaviour and significance of slow-binding enzyme inhibitors, Adv. Enzymol. Relat. Areas Mol. Biol. 61, 201-301). […] Hypoxanthine formed by phosphorolysis of inosine was oxidized to uric acid and monitored spectrophotometrically at 293 nm (extinction coefficient for uric acid ε293=12.9 mM^−1cm^−1). Enzyme concentration was adjusted to give absorbance changes not exceeding 1.0 during the time required to characterize initial and final slow-onset inhibition equilibria. […] Ki was determined by fitting the initial rates at different inhibitor concentration to the equation for competitive inhibition: νi=(kcat×S)/(Km(1+I/Ki)+S), where μi is initial reaction rate, kcat is the catalytic turnover number, Km is the Michaelis constant, Ki is the dissociation constant of enzyme-inhibitor complex (EI), I is inhibitor concentration and S is substrate concentration. […]

SMILES strings stand for the structures. Where two headings read alike, the source gives them in different places.

In general, Ki refers to a dissociation constant, usually derived from enzyme kinetics or from competition with a known ligand. For the compound `O=c1[nH]cnc2c(CCN3C[C@@H](CO)[C@H](O)C3)c[nH]c12` [Compound 1, (3S,4S)-1-[2-(9-Deaza-hypoxanthin-9-yl)ethyl]-3-hydroxy-4-hydroxymethylpyrrolidine], the Ki (after slow onset equilibrium, read-out: Equilibrium dissociation constant (Ki*)) is 0.46 ± 0.05 nM and the Ki (initial inhibitor binding step, read-out: Initial dissociation constant (Ki)) stood at 1.6 ± 0.3 nM.
